Structures can show the parent of a compound that is named as a salt.
Columns and labels:
[1] = LD20 determined in the P388/0 test; assay type: in vivo
Protocol: (§1) CD2-F₁ mice, of the same sex weighing within 20+3g, are used for this test. Control and test animals are injected intraperitoneally with a suspension of 10⁶ viable P388/O tumour cells on day 0. In each test several dose levels which bracket the LD₂₀ for the compound are evaluated; each dose level group contains 6 animals. The test compounds are prepared either in physiologic saline containing 0.05% Tween 80 or distilled water containing 5% dextrose and are administered intraperitoneally on days, 1, 5, and 9 relative to tumor implant. Doses are on a mg/kg basis according to individual animals' body weights. the day of death for each animal is recorded, the median identified for each group and the ratios of median survival time for treated (T)/control (C) groups are calculated. The criterion for activity is T/C x 100 ≧120%.

P388/O tumour cells = assay: Lymphocytic Leukemia P388/0 Test; assay type: in vivo, CD2-F₁ mice; conditions: for 30-Day Survivors: at optimal dose, survivors per 6 animals of the dose group; for % T/C*: ratio of median survival time treated/control x 100 at optimal dose, excluding 30 day survivors, criterion for activity T/C x 100 ≧120%
From the text: Methods for evaluating the antitumor activity of these compounds are essentially those used in the Tumour Panel by the Development Therapeutics Program, Division of Cancer Treatment, National Cancer Institute, A. Goldin et al., Methods in Cancer Research, Vol. XVI, p.165, Academic Press (1979). Some modifications, in dose level and schedule have been made to increase the testing efficiency.
as §1

[2] = mice, intraperitoneally on days 1, 5 and 9

| Compound | LD20 [1, 2] | 30-Day Survivors (P388/O tumour cells) | % T/C* (P388/O tumour cells) | LD20 ([1]; mouse, in vivo, ip) |
| --- | --- | --- | --- | --- |
| Cl.Cn1c2ccccc2c2oc3c(CNC(C)(CO)CO)cccc3c21 [Example 1E, 2-Methyl-2-(((10-methyl-10H-benzofuro(3,2-b)indol-6-yl)methyl)amino)-1,3-propanediol Hydrochloride] | 150 mg/kg | 0/6 | 210% | – |
| Cn1c2ccccc2c2cc(CNC(C)(CO)CO)c3sccc3c21 [Example 2C, 2-Methyl-2-(((10-methyl-10H-thieno(3,2-a)carbazol-4-yl)methyl)amino)-1,3-propanediol methanesulfonate] | – | 0/6 | 195% | 375 mg/kg |
| Cn1c2ccccc2c2ccc3sc(CNC(C)(CO)CO)cc3c21 [Example 3B, 2-Methyl-2-(((10-methyl-10H-thieno(3,2-a)carbazol-2-yl)methyl)amino)-1,3-propanediol methanesulfonate] | – | 0/6 | 195% | 375 mg/kg |
| CC(CO)(CO)NCc1ccc2c(c1)oc1ccc3occc3c12.Cl [Example 4M, 2(((Benzofuro(5,4-b)benzofuran-8-yl)methyl)amino)-2-methyl-1,3-propanediol Hydrochloride] | >450 mg/kg | 0/6 | 117% | – |
| CC(CO)(CO)NCc1ccc2oc3ccc4occc4c3c2c1.Cl [Example 5E, 2-(((Benzofuro(5,4-b)benzofuran-9-yl)methyl)amino)-2-methyl-1,3-propanediol Hydrochloride] | 175 mg/kg | 0/6 | 117% | – |
| CC(CO)(CO)NCc1cc2oc3ccccc3c2c2ccoc12.Cl [Example 6E, 2-(((Benzofuro(5,4-b)benzofuran-4-yl)methyl)amino)-2-methyl-1,3-propanediol Hydrochloride] | 60 mg/kg | 1/6 | 213% | – |
| CC(CO)(CO)NCc1cc2c(ccc3oc4ccccc4c32)o1.Cl [Example 7B, 2-(((Benzofuro(5,4-b)benzofuran-2-yl)methyl)amino)-2-methyl-1,3-propanediol hydrochloride] | 175 mg/kg | 0/6 | 138% | – |
| CC(CO)(CO)NCc1ccc2oc3cc4ccoc4cc3c2c1.Cl [Example 8H, 2(((Benzofuro(5,6-b)benzofuran-8-yl)methyl)amino)-2-methyl-1,3-propanediol Hydrochloride] | 300 mg/kg | 0/6 | 200% | – |
| CC(CO)(CO)NCc1c2ccoc2cc2c1oc1ccccc12.Cl [Example 9E, 2-(((Benzofuro(5,6-b)benzofuran-4-yl)methyl)amino)-2-methyl 1,3-propanediol Hydrochloride] | 75 mg/kg | 0/6 | 192% | – |
| CC(CO)(CO)NCc1cc2cc3oc4ccccc4c3cc2o1.Cl [Example 10B, 2-(((Benzofuro(5,6-b)benzofuran-2-yl)methyl)amino)-2-methyl-1,3-propanediol Hydrochloride] | >675 mg/kg | 0/6 | 100% | – |
| Cl.Cn1cc(CNC(C)(CO)CO)c2ccc3sc4ccccc4c3c21 [Example 11E, 2-Methyl-2-(((1-methyl-1H-[1]benzothieno[2,3]indol-3-yl)methyl)amino)-1,3-propanediol Hydrochloride] | 250 mg/kg | 0/6 | 135% | – |
| CCn1c2ccccc2c2c3c(ccc21)c(CNC(C)(CO)CO)cn3C [Example 12C, 2-(((6-Ethyl-1,6-dihydro-1-methylpyrrolo[3,2-c]carbazol-3-yl)methyl)-amino)-2-methyl-1,3-propanediol Hydrochloride 0.6 H₂O] | – | 0/6 | 113% | 100 mg/kg |
| Cl.Cn1cc(CNC(C)(CO)CO)c2ccc3oc4ccccc4c3c21 [Example 13E, 2-Methyl-2-(((1-methyl-1H-benzofuro[2,3-g]indole-3-yl)methyl)amino)-1,3-propanediol Hydrochloride] | 115 mg/kg | 0/6 | 120% | – |
| Cl.Cn1cc(CNC(C)(CO)CO)c2c3sc4ccccc4c3ccc21 [Example 14B, 2-Methyl-2-(((3-methyl-3H-[1]benzothieno[2,3-e]indol-1-yl)methyl)amino)-1,3-propanediol Hydrochloride] | 150 mg/kg | 0/6 | 215% | – |
| Cn1c2cccc(CNC(C)(CO)CO)c2c2sc3ccccc3c21 [Example 15D, 2-(((10-Methyl-10H-[1]benzothieno[3,2-b]indol-6-yl)methyl)amino)-2-methyl-1,3-propanediol Hydrochloride] | – | 5/6 | 140% | 225 mg/kg |
| Cn1c2ccccc2c2sc3cc(CNC(C)(CO)CO)ccc3c21 [Example 16, 2-(((10-Methyl-10H-[1]benzothieno[3,2-b]indol-3-yl)methyl)amino)-2-methyl-1,3-propanediol hydrochloride] | – | 0/6 | 170% | 250 mg/kg |

From patent EP0447703A1, “Hetero polycyclic biocidal compounds, their synthesis and intermediates therefor,formulations containing them and their use in medicine” (THE WELLCOME FOUNDATION LIMITED, priority 1990, dated 1991)
